This passage reports IC50 results from US9187472B2 (AbbVie Inc., priority 2012, dated 2015).

In general, IC50 refers to the concentration that gives 50% inhibition.

The structures appear in SMILES notation.

For one experiment, the target named is NAMPT (Homo sapiens, UniProt P43490). In words: TR-FRET Binding Assay of NAMPT with PRPP. The conditions noted are these: with 200 μM PRPP and 2.5 mM ATP; 2 nM NAMPT, 2 nM probe, 16 hours equilibration. The procedure, abridged: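 Compounds were mixed with 2 nM His-tagged NAMPT, 2 nM probe, 1 nM terbium anti-His antibody, 200 μM PRPP and 2.5 mM ATP in assay buffer with 2% DMSO, then left 16 hours to permit possible enzymatic processing of compounds before time-resolved FRET was measured.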

The target of experiment [1] is NAMPT (human, recombinant, C-terminally His-tagged) (Homo sapiens, UniProt P43490). In words: Time-Resolved Fluorescence Resonance Energy Transfer (TR-FRET) Binding Assay of NAMPT. The conditions noted are these: without substrates; 6.8 nM NAMPT, 200 nM probe, 3 hours equilibration. The procedure, abridged: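 Compounds, diluted in half-log steps, are mixed with enzyme (6.8 nM), fluorescent probe (200 nM) and Tb-anti-His antibody (1 nM) in pH 7.5 HEPES buffer containing 10 mM MgCl2 and 1 mM DTT. Plates equilibrate 3 h at room temperature; normalized FRET ratios are fitted by four-parameter logistic regression for IC50.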
(In general: In TR-FRET formats the signal depends on donor and acceptor labels being close together.)

A further experiment deals with PC3 cells. In words: NAMPT Cell Proliferation Assay. It counts as cell-based. Particulars: Homo sapiens, PC-3, 120 h, 5 days incubation, cell viability by Cell Titer Glo. The procedure, abridged:
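PC3 cells were plated at 500 cells/well in RPMI with 10% heat-inactivated FBS, left to attach overnight, then given compounds in 10-fold dilutions from 10 μM to 1×10^−5 μM. After 5 days at 37° C and 5% CO2, viability was read by luminescence and IC50s came from sigmoidal fits of percent inhibition.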
(In ATP-based viability assays light output follows the ATP content of the culture.)

Sequence of NAMPT (human, recombinant, C-terminally His-tagged) (P43490 whole entry): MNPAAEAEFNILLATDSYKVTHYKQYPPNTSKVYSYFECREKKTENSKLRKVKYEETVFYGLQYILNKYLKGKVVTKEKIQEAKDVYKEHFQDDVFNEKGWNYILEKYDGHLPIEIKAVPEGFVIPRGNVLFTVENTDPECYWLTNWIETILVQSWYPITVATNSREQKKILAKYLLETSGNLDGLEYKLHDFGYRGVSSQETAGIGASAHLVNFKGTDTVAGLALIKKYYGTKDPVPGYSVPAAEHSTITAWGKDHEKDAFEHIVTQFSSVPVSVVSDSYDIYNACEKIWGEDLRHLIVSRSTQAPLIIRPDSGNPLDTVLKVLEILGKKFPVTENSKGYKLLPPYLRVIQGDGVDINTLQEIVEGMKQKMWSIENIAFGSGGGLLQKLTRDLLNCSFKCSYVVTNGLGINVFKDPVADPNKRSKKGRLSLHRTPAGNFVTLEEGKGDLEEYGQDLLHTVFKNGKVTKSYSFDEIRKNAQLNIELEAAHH
Sequence of NAMPT (P43490 whole entry): as above

In the case of `O=C(NCc1ccc2nccn2c1)c1ccc(C2=CCN(C(=O)C3CCOCC3)CC2)cc1` [Example 101, N-(imidazo[1,2-a]pyridin-6-ylmethyl)-4-[1-(tetrahydro-2H-pyran-4-ylcarbonyl)-1,2,3,6-tetrahydropyridin-4-yl]benzamide], the IC50 on NAMPT was 1.73 nM; in experiment [1] it was 332 nM; in the experiment on PC3 cells it was 2.44 nM.
For `O=C(NCc1ccc2nccn2c1)c1ccc(C2=CCN(C(=O)C3COCCO3)CC2)cc1` (stereo not drawn) [Example 102, 4-[1-(1,4-dioxan-2-ylcarbonyl)-1,2,3,6-tetrahydropyridin-4-yl]-N-(imidazo[1,2-a]pyridin-6-ylmethyl)benzamide], in that order: 1.21 nM, 385 nM and 13 nM.
For `COCCOCC(=O)N1CC=C(c2ccc(C(=O)NCc3ccc4nccn4c3)cc2)CC1` [Example 103, N-(imidazo[1,2-a]pyridin-6-ylmethyl)-4-{1-[(2-methoxyethoxy)acetyl]-1,2,3,6-tetrahydropyridin-4-yl}benzamide], in that order: 1.44 nM, 840 nM and 62.1 nM.
Taken in the same sequence, the figures for `O=C(NCc1ccc2nccn2c1)c1ccc(C2=CCN(C(=O)c3ccccc3)CC2)cc1` [Example 104, 4-(1-benzoyl-1,2,3,6-tetrahydropyridin-4-yl)-N-(imidazo[1,2-a]pyridin-6-ylmethyl)benzamide] were 2 nM, 135 nM and 8.46 nM.
As for `O=C(NCc1ccc2nccn2c1)c1ccc(C2=CCN(C(=O)C3CCC(F)(F)CC3)CC2)cc1` [Example 105, 4-{1-[(4,4-difluorocyclohexyl)carbonyl]-1,2,3,6-tetrahydropyridin-4-yl}-N-(imidazo[1,2-a]pyridin-6-ylmethyl)benzamide], the IC50 at NAMPT was 0.476 nM; in experiment [1], 106 nM; in the experiment with PC3 cells, 6.61 nM.
Taken in the same sequence, the figures for `CC(C)C(=O)N1CCC(c2ccc(NC(=O)Nc3ccc4nccn4c3)cc2)CC1` [Example 106, 1-imidazo[1,2-a]pyridin-6-yl-3-{4-[1-(2-methylpropanoyl)piperidin-4-yl]phenyl}urea] were 0.201 nM, 247 nM and 78.7 nM.
Take `O=C(NCCCCC1CCN(C(=O)c2ccccc2)CC1)Nc1ccc2nccn2c1` [Example 107, 1-[4-(1-benzoylpiperidin-4-yl)butyl]-3-imidazo[1,2-a]pyridin-6-ylurea]: the values for the IC50 (at NAMPT; in experiment [1]; in the experiment on PC3 cells) were 0.492 nM, 45.1 nM and 10.8 nM, respectively.
As to `O=C(NCc1ccc2nccn2c1)c1cnc(N2CCc3ccccc3C2)s1` [Example 108, 2-(3,4-dihydroisoquinolin-2(1H)-yl)-N-(imidazo[1,2-a]pyridin-6-ylmethyl)-1,3-thiazole-5-carboxamide], the IC50 was determined as 1.05 nM on NAMPT, 1770 nM in experiment [1] and 7660 nM with PC3 cells.
Taken in the same sequence, the figures for `O=C(Nc1ccc(C2CCN(C(=O)C3CCOCC3)CC2)cc1)Nc1ccc2nccn2c1` [Example 109, 1-imidazo[1,2-a]pyridin-6-yl-3-{4-[1-(tetrahydro-2H-pyran-4-ylcarbonyl)piperidin-4-yl]phenyl}urea] were 0.209 nM, 340 nM and 52.2 nM.
On to `O=C(Nc1ccc(C2CCN(C(=O)CC3CCOC3)CC2)cc1)Nc1ccc2nccn2c1` (stereo not drawn) [Example 110, 1-imidazo[1,2-a]pyridin-6-yl-3-{4-[1-(tetrahydrofuran-3-ylacetyl)piperidin-4-yl]phenyl}urea], for which the values for the IC50 (on NAMPT; in experiment [1]; in the experiment with PC3 cells) were 0.174 nM, 423 nM and 202 nM, respectively.
For `O=C(Nc1ccc(C2CCN(C(=O)CC3CCCO3)CC2)cc1)Nc1ccc2nccn2c1` (stereo not drawn) [Example 111, 1-imidazo[1,2-a]pyridin-6-yl-3-{4-[1-(tetrahydrofuran-2-ylacetyl)piperidin-4-yl]phenyl}urea], in that order: 0.209 nM, 263 nM and 75.5 nM.
`O=C(Nc1ccc(C2CCN(C(=O)c3ccccc3)CC2)cc1)Nc1ccc2nccn2c1` [Example 112, 1-[4-(1-benzoylpiperidin-4-yl)phenyl]-3-imidazo[1,2-a]pyridin-6-ylurea]: the concentration for half-maximal inhibition (IC50) at NAMPT is 0.169 nM; in experiment [1], 46.5 nM; in the experiment on PC3 cells, 6.96 nM.
Taken in the same sequence, the figures for `O=C(Nc1ccc(C2CCN(C(=O)C3CCCO3)CC2)cc1)Nc1ccc2nccn2c1` (stereo not drawn) [Example 113, 1-imidazo[1,2-a]pyridin-6-yl-3-{4-[1-(tetrahydrofuran-2-ylcarbonyl)piperidin-4-yl]phenyl}urea] were 0.169 nM, 356 nM and 93.3 nM.
Taken in the same sequence, the figures for `CC(C)(C)OC(=O)N1CCC(Oc2ccc(C(=O)NCc3ccc4nccn4c3)cc2)CC1` [Example 114, tert-butyl 4-{4-[(imidazo[1,2-a]pyridin-6-ylmethyl)carbamoyl]phenoxy}piperidine-1-carboxylate] were 1.11 nM, 818 nM and 142 nM.
As to `CC(C)OCCNC(=O)N(CC1CCCO1)c1ncc(C(=O)NCc2ccc3nccn3c2)s1` (stereo not drawn) [Example 115, N-(imidazo[1,2-a]pyridin-6-ylmethyl)-2-[{[2-(propan-2-yloxy)ethyl]carbamoyl}(tetrahydrofuran-2-ylmethyl)amino]-1,3-thiazole-5-carboxamide], the IC50 was determined as 0.676 nM at NAMPT, 243 nM in experiment [1] and 6.38 nM in the experiment on PC3 cells.
For `O=C(NCc1ccc2nccn2c1)c1cnc(N2C(=O)OCC2C2CCOC2)s1` (stereo not drawn) [Example 116, N-(imidazo[1,2-a]pyridin-6-ylmethyl)-2-[2-oxo-4-(tetrahydrofuran-3-yl)-1,3-oxazolidin-3-yl]-1,3-thiazole-5-carboxamide], in that order: 0.69 nM, 863 nM and 61.3 nM.
For `O=C(CC1CCCC1)Nc1ccc(C(=O)NCc2ccn3ccnc3c2)cc1` [Example 117, 4-[(cyclopentylacetyl)amino]-N-(imidazo[1,2-a]pyridin-7-ylmethyl)benzamide], in that order: 0.436 nM, 392 nM and 63.9 nM.
For the compound `O=C(CC1CCCC1)Nc1ccc(NC(=O)NCc2ccn3ccnc3c2)cc1` [Example 118, 2-cyclopentyl-N-(4-{[(imidazo[1,2-a]pyridin-7-ylmethyl)carbamoyl]amino}phenyl)acetamide], the half-inhibitory concentration (IC50) on NAMPT was 0.234 nM; in experiment [1], 35.2 nM; in the experiment with PC3 cells, 18.2 nM.
Taken in the same sequence, the figures for `CC(C)Cn1cc(-c2ccc(C(=O)NCc3ccc4nccn4c3)cc2)cn1` [Example 119, N-(imidazo[1,2-a]pyridin-6-ylmethyl)-4-[1-(2-methylpropyl)-1H-pyrazol-4-yl]benzamide] were 0.783 nM, 942 nM and 146 nM.
As for `CC(C)Cn1cc(-c2ccc(C(=O)NCc3ccc4nccn4c3)o2)cn1` [Example 120, N-(imidazo[1,2-a]pyridin-6-ylmethyl)-5-[1-(2-methylpropyl)-1H-pyrazol-4-yl]furan-2-carboxamide], the figures for the half-maximal inhibitory concentration (IC50) (at NAMPT; in experiment [1]; in the experiment with PC3 cells) were 0.367 nM, 73.9 nM and 90.8 nM, respectively.
